Columns and labels:
Type in all cases: in vivo
[1] = test system: purple nutsedge (Cyperus rotundus); assay: Test C; parameters: key: 0 was no effect; 100 was complete control; settings: PREEMERGENCE
[2] = test system: large crabgrass (Digitaria sanguinalis); assay: Test E pre-/postemergence/post directed
Description: (§1) Seeds, tubers, or plant parts of alexandergrass (Brachiaria plantaginea), annual bluegrass (Poa annua), arrowleaf sida (Sida rhombifolia), barnyardgrass (Echinochloa crus-galli), bermudagrass (Cynodon dactylon), citrus (Citrus sinensis), common chickweed (Stellaria media), common purslane (Portulaca oleracea), common ragweed (Ambrosia elatior), common groundsel (Senecio vulgaris), dallisgrass (Paspalum dilatatum), goosegrass (Eleusine indica), green foxtail (Setaria viridis), guineagrass (Panicum maximum), itchgrass (Rottboellia exaltata), johnson grass (Sorghum halepense), kochia (Kochia scoparia), large crabgrass (Digitaria sanguinalis), leafy spurge (Euphorbia esula), pitted morningglory (Ipomoea lacunosa), purple nutsedge (Cyperus rotundus), quackgrass (Agropyron repens), Russian thistle (Salsola kali), sandbur (Cenchrus echinatus), sourgrass (Trichachne insularis), Spanishneedles (Bidens bipinnata), sugarcane (Saccharum officinarum), surinam grass (Brachiaria decumbens) and tall mallow (Malva sylvestris) were planted into greenhouse pots of flats containing greenhouse planting medium. Plant species were grown grown in separate pots or individual compartments. Preemergence applications were made within one day of planting the seed or plant part. Postemergence applications were applied when the plants were in the two to four leaf stage (three to twenty cm).
(§2) Test chemicals were formulated in a non-phytotoxic solvent mixture which included a surfactant and applied preemergence to the soil surface, postemergence to the plants or as a post directed spray to plants and soil at the base of the target species. Untreated control plants and treated plants were placed in the greenhouse and visually evaluated for injury 13 to 21 days after herbicide application. Plant response ratings, summarized in Table E, are based on a 0 to 100 scale where 0 is no injury and 100 is complete control. A dash (−) response means no test result.

[3] = test system: itchgrass (Rottboellia exaltata); assay: Test E pre-/postemergence/post directed
Description: as §1, §2

[4] = test system: Spanishneedles (Bidens bipinnata); assay: Test E pre-/postemergence/post directed
Description: as §1, §2

[5] = test system: common ragweed (Ambrosia elatior); assay: Test E pre-/postemergence/post directed
Description: as §1, §2

[6] = test system: sandbur (Cenchrus echinatus); assay: Test E pre-/postemergence/post directed
Description: as §1, §2

[7] = test system: bermudagrass (Cynodon dactylon); assay: Test E pre-/postemergence/post directed
Description: as §1, §2

[8] = test system: common groundsel (Senecio vulgaris); assay: Test E pre-/postemergence/post directed; settings: PREEMERGENCE
Description: as §1, §2

[9] = test system: surinam grass (Brachiaria decumbens); assay: Test E pre-/postemergence/post directed
Description: as §1, §2

[10] = test system: alexandergrass (Brachiaria plantaginea); assay: Test E pre-/postemergence/post directed
Description: as §1, §2

[11] = test system: pitted morningglory (Ipomoea lacunosa); assay: Test E pre-/postemergence/post directed
Description: as §1, §2

[12] = test system: johnson grass (Sorghum halepense); assay: Test E pre-/postemergence/post directed
Description: as §1, §2

[13] = test system: ivyleaf morningglory (Ipomoea hederacea); assay: Test C; parameters: key: 0 was no effect; 100 was complete control; settings: PREEMERGENCE
[14] = test system: cocklebur (Xanthium strumarium); assay: Test C; parameters: key: 0 was no effect; 100 was complete control; settings: PREEMERGENCE
[15] = test system: barnyardgrass (Echinochloa crus-galli); assay: Test C; settings: PREEMERGENCE
[16] = test system: velvetleaf (Abutilon theophrasti); assay: Test C; parameters: key: 0 was no effect; 100 was complete control; settings: PREEMERGENCE
[17] = test system: johnsongrass (Sorghum halepense); assay: Test C; settings: PREEMERGENCE
corn (Zea mays) = assay: Test C; parameters: key: 0 was no effect; 100 was complete control; settings: PREEMERGENCE
[18] = test system: purple nutsedge (Cyperus rotundus); assay: Test E pre-/postemergence/post directed; parameters: key: 0 is no injury; 100 is complete control
Description: as §1, §2

[19] = test system: hairy beggarticks (Bidens pilosa); assay: Test C; parameters: key: 0 was no effect; 100 was complete control; settings: PREEMERGENCE

Cc1cnc(-n2ccc(C(F)(F)F)n2)nc1Cn1ccc(C(F)(F)F)n1 [Compound 52]
Plant response rating, Purple nutsedge ([1]; Rate 35 g/ha): 0
Plant response rating, Purple nutsedge ([1]; Rate 70 g/ha): 5
Plant response rating, Purple nutsedge ([1]; Rate 140 g/ha): 10
Plant response rating, Large crabgrass ([2]; POSTEMERGENCE, Rate 125 g/ha): 5
Plant response rating, Large crabgrass ([2]; POSTEMERGENCE, Rate 250 g/ha): 80
Plant response rating, Large crabgrass ([2]; PREEMERGENCE, Rate 32 g/ha): 98
Plant response rating, Itchgrass ([3]; POSTEMERGENCE, Rate 125 g/ha): 35
Plant response rating, Itchgrass ([3]; POSTEMERGENCE, Rate 250 g/ha): 40
Plant response rating, Itchgrass ([3]; PREEMERGENCE, Rate 32 g/ha): 35
Plant response rating, Itchgrass ([3]; PREEMERGENCE, Rate 64 g/ha): 70
Plant response rating, Itchgrass ([3]; PREEMERGENCE, Rate 125 g/ha): 80
Plant response rating, Spanishneedles ([4]; POSTEMERGENCE, Rate 125 g/ha): 65
Plant response rating, Spanishneedles ([4]; POSTEMERGENCE, Rate 250 g/ha): 60
Plant response rating, Spanishneedles ([4]; PREEMERGENCE, Rate 32 g/ha): 20
Plant response rating, Spanishneedles ([4]; PREEMERGENCE, Rate 64 g/ha): 20
Plant response rating, Spanishneedles ([4]; PREEMERGENCE, Rate 125 g/ha): 35
Plant response rating, Com. ragweed ([5]; POSTEMERGENCE, Rate 125 g/ha): 50
Plant response rating, Com. ragweed ([5]; POSTEMERGENCE, Rate 250 g/ha): 80
Plant response rating, Com. ragweed ([5]; PREEMERGENCE, Rate 32 g/ha): 35
Plant response rating, Com. ragweed ([5]; PREEMERGENCE, Rate 64 g/ha): 80
Plant response rating, Sandbur ([6]; POSTEMERGENCE, Rate 125 g/ha): 5
Plant response rating, Sandbur ([6]; POSTEMERGENCE, Rate 250 g/ha): 60
Plant response rating, Sandbur ([6]; PREEMERGENCE, Rate 64 g/ha): 10
Plant response rating, Sandbur ([6]; PREEMERGENCE, Rate 125 g/ha): 50
Plant response rating, Bermudagrass ([7]; POSTEMERGENCE, Rate 125 g/ha): 35
Plant response rating, Bermudagrass ([7]; POSTEMERGENCE, Rate 250 g/ha): 35
Plant response rating, Bermudagrass ([7]; PREEMERGENCE, Rate 32 g/ha): 70
Plant response rating, Bermudagrass ([7]; PREEMERGENCE, Rate 64 g/ha): 90
Plant response rating, Com. groundsel ([8]; Rate 32 g/ha): 35
Plant response rating, Com. groundsel ([8]; Rate 64 g/ha): 98
Plant response rating, Surinam grass ([9]; POSTEMERGENCE, Rate 125 g/ha): 75
Plant response rating, Surinam grass ([9]; POSTEMERGENCE, Rate 250 g/ha): 75
Plant response rating, Surinam grass ([9]; PREEMERGENCE, Rate 32 g/ha): 30
Plant response rating, Surinam grass ([9]; PREEMERGENCE, Rate 64 g/ha): 70
Plant response rating, Surinam grass ([9]; PREEMERGENCE, Rate 125 g/ha): 80
Plant response rating, Alexandergrass ([10]; POSTEMERGENCE, Rate 125 g/ha): 10
Plant response rating, Alexandergrass ([10]; POSTEMERGENCE, Rate 250 g/ha): 75
Plant response rating, Alexandergrass ([10]; PREEMERGENCE, Rate 32 g/ha): 20
Plant response rating, Alexandergrass ([10]; PREEMERGENCE, Rate 64 g/ha): 75
Plant response rating, Alexandergrass ([10]; PREEMERGENCE, Rate 125 g/ha): 75
Plant response rating, P. morninglory ([11]; POSTEMERGENCE, Rate 125 g/ha): 80
Plant response rating, P. morninglory ([11]; POSTEMERGENCE, Rate 250 g/ha): 80
Plant response rating, P. morninglory ([11]; PREEMERGENCE, Rate 32 g/ha): 50
Plant response rating, Johnsongrass ([12]; POSTEMERGENCE, Rate 125 g/ha): 35
Plant response rating, Johnsongrass ([12]; POSTEMERGENCE, Rate 250 g/ha): 20
Plant response rating, Johnsongrass ([12]; PREEMERGENCE, Rate 64 g/ha): 50
Plant response rating, Johnsongrass ([12]; PREEMERGENCE, Rate 125 g/ha): 75
Plant response rating, I. morningglory ([13]; Rate 35 g/ha): 5
Plant response rating, I. morningglory ([13]; Rate 70 g/ha): 100
Plant response rating, I. morningglory ([13]; Rate 140 g/ha): 100
Plant response rating, Cocklebur ([14]; Rate 70 g/ha): 0
Plant response rating, Cocklebur ([14]; Rate 140 g/ha): 20
Plant response rating, Barnyardgrass ([15]; Rate 35 g/ha): 30
Plant response rating, Barnyardgrass ([15]; Rate 70 g/ha): 40
Plant response rating, Barnyardgrass ([15]; Rate 140 g/ha): 40
Plant response rating, Velvetleaf ([16]; Rate 35 g/ha): 70
Plant response rating, Velvetleaf ([16]; Rate 70 g/ha): 100
Plant response rating, Velvetleaf ([16]; Rate 140 g/ha): 100
Plant response rating, Johnsongrass ([17]; Rate 35 g/ha): 40
Plant response rating, Johnsongrass ([17]; Rate 70 g/ha): 50
Plant response rating, Johnsongrass ([17]; Rate 140 g/ha): 80
Plant response rating, Corn (corn (Zea mays); Rate 35 g/ha): 0
Plant response rating, Corn (corn (Zea mays); Rate 70 g/ha): 45
Plant response rating, Corn (corn (Zea mays); Rate 140 g/ha): 50
Plant response rating, Purple nutsedge ([18]; POSTEMERGENCE, Rate 125 g/ha): 40
Plant response rating, Purple nutsedge ([18]; POSTEMERGENCE, Rate 250 g/ha): 50
Plant response rating, Purple nutsedge ([18]; PREEMERGENCE, Rate 32 g/ha): 5
Plant response rating, Purple nutsedge ([18]; PREEMERGENCE, Rate 64 g/ha): 30
Plant response rating, Purple nutsedge ([18]; PREEMERGENCE, Rate 125 g/ha): 50
Plant response rating, H. beggarticks ([19]; Rate 35 g/ha): 0
Plant response rating, H. beggarticks ([19]; Rate 70 g/ha): 0
Plant response rating, H. beggarticks ([19]; Rate 140 g/ha): 30

Cc1cnc(-n2cnc(C(F)(F)F)n2)nc1C(=O)c1cccc(C(F)(F)F)c1 [Compound 67]
Plant response rating, Large crabgrass ([2]; PREEMERGENCE, Rate 32 g/ha): 90
Plant response rating, Large crabgrass ([2]; PREEMERGENCE, Rate 64 g/ha): 95
Plant response rating, Large crabgrass ([2]; PREEMERGENCE, Rate 125 g/ha): 98
Plant response rating, Itchgrass ([3]; PREEMERGENCE, Rate 32 g/ha): 40
Plant response rating, Itchgrass ([3]; PREEMERGENCE, Rate 64 g/ha): 40
Plant response rating, Itchgrass ([3]; PREEMERGENCE, Rate 125 g/ha): 65
Plant response rating, Itchgrass ([3]; PREEMERGENCE, Rate 250 g/ha): 80
Plant response rating, Spanishneedles ([4]; PREEMERGENCE, Rate 125 g/ha): 50
Plant response rating, Spanishneedles ([4]; PREEMERGENCE, Rate 250 g/ha): 50
Plant response rating, Com. ragweed ([5]; PREEMERGENCE, Rate 32 g/ha): 90
Plant response rating, Com. ragweed ([5]; PREEMERGENCE, Rate 64 g/ha): 95
Plant response rating, Sandbur ([6]; PREEMERGENCE, Rate 32 g/ha): 60
Plant response rating, Sandbur ([6]; PREEMERGENCE, Rate 64 g/ha): 60
Plant response rating, Sandbur ([6]; PREEMERGENCE, Rate 125 g/ha): 65
Plant response rating, Sandbur ([6]; PREEMERGENCE, Rate 250 g/ha): 75
Plant response rating, Bermudagrass ([7]; PREEMERGENCE, Rate 32 g/ha): 70
Plant response rating, Bermudagrass ([7]; PREEMERGENCE, Rate 64 g/ha): 90
Plant response rating, Bermudagrass ([7]; PREEMERGENCE, Rate 125 g/ha): 90
Plant response rating, Com. groundsel ([8]; Rate 64 g/ha): 50
Plant response rating, Com. groundsel ([8]; Rate 125 g/ha): 95
Plant response rating, Surinam grass ([9]; PREEMERGENCE, Rate 32 g/ha): 35
Plant response rating, Surinam grass ([9]; PREEMERGENCE, Rate 64 g/ha): 75
Plant response rating, Surinam grass ([9]; PREEMERGENCE, Rate 125 g/ha): 75
Plant response rating, Alexandergrass ([10]; PREEMERGENCE, Rate 32 g/ha): 25
Plant response rating, Alexandergrass ([10]; PREEMERGENCE, Rate 64 g/ha): 40
Plant response rating, Alexandergrass ([10]; PREEMERGENCE, Rate 125 g/ha): 70
Plant response rating, Alexandergrass ([10]; PREEMERGENCE, Rate 250 g/ha): 95
Plant response rating, P. morninglory ([11]; PREEMERGENCE, Rate 32 g/ha): 60
Plant response rating, P. morninglory ([11]; PREEMERGENCE, Rate 64 g/ha): 75
Plant response rating, P. morninglory ([11]; PREEMERGENCE, Rate 125 g/ha): 90
Plant response rating, P. morninglory ([11]; PREEMERGENCE, Rate 250 g/ha): 90
Plant response rating, Johnsongrass ([12]; PREEMERGENCE, Rate 32 g/ha): 35
Plant response rating, Johnsongrass ([12]; PREEMERGENCE, Rate 64 g/ha): 35
Plant response rating, Johnsongrass ([12]; PREEMERGENCE, Rate 125 g/ha): 50
Plant response rating, Johnsongrass ([12]; PREEMERGENCE, Rate 250 g/ha): 80
Plant response rating, Purple nutsedge ([18]; PREEMERGENCE, Rate 32 g/ha): 0
Plant response rating, Purple nutsedge ([18]; PREEMERGENCE, Rate 64 g/ha): 5
Plant response rating, Purple nutsedge ([18]; PREEMERGENCE, Rate 125 g/ha): 5
Plant response rating, Purple nutsedge ([18]; PREEMERGENCE, Rate 250 g/ha): 10
